The values below come from patent US7932241B2, “Pharmaceutical products comprising bisphosphonates” (Novartis AG, priority 2003, dated 2011).

What is called pKa is the pH at which an ionisable group is half protonated.

The data set can be described thus: physchem. As to conditions: pKa values.

Method: Each 800 g of this solution (equivalent to 50 mg of zoledronic acid) are titrated with • (a) a solution of 0.500 g/100 mL trisodium citrate dihydrate in water for injection • (b) a solution of 0.500 g/100 mL anhydrous sodium acetate in water for injection • (c) a solution of 0.500 g/100 mL disodium tartrate dihydrate in water for injection • (d) a solution of 0.500 g/100 mL trisodium phosphate hexahydrate in water for injection • (e) a solution of 0.400 g/100 mL sodium hydroxide in water for injection
The pH value after each addition of 200 μL of base solution is recorded potentiometrically.

Consider `O=P(O)(O)C(O)(Cn1ccnc1)P(=O)(O)O` [zoledronic acid, 2-(imidazol-1yl)-1-hydroxyethane-1,1-diphosphonic acid], for which the pKa is 5.9.
